Data on 1 compound can be found in article PMC10411619 (Chemical Science, 2023).

This test addresses cyt P460 (Nitrosomonas europaea, UniProt Q50927). Briefly: biochemical.

cyt P460, sequence (Q50927 27-198): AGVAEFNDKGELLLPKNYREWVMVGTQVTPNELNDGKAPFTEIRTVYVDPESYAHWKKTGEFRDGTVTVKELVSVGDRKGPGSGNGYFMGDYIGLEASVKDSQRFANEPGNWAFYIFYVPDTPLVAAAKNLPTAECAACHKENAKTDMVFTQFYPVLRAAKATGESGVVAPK

As to `NO` [NH2OH], the Kd (usually a measure of binding affinity in units of concentration) is 30 ± 0.7 mM.
